Test results reported in patent US4599352A, “Antineoplastic platinum (IV) complexes and compositions” (priority 1984, dated 1986).

Legend:
IP L1210 [1] = test: Activity against IP-implanted L1210 leukemia sensitive to cisplatin, 60 day test (Table 4); format: in vivo, Female CD2Fl mice
Description: (§1) Biological properties of the compounds of the present invention were determined following the protocol described in Cancer Chemotherapy Reports, Vol. 3, No. 3, 1972 which report is incorporated herein by reference.
(§2) Other known mechanisms of resistance for other classes of agents, such as gene amplification or target enzyme change or amplication, also need to be explored. The experiments summarized in Table 3 were conducted at the same time against both sublines using the same drug preparations. […] These experiments were repeated in a second laboratory as documented in Table 4. However, in these experiments the animals were held for 60 rather than 30 days to evaluate whether or not long-term survivors are produced after drug treatment in a more challenging setting.
(§3) This experiment (A8-00005 3LE31) was conducted at the Southern Research Institute, Birmingham, Ala. under the supervision of Dr. Daniel Griswold. The protocols were the same as those published previously (Geran et al., Cancer Chemotherapy Reports 3: No. 2, 1972 [Attachment 11]). 10^5 cells were implanted intraperitoneally in CD2Fl male mice on Day 0. Drug treatments were given intraperitoneally as single injections at the doses indicated on Days 1, 5 and 9 after tumor implantation. The diluent was saline except for NSC-271674 where 5% sodium bicarbonate was used. All drugs were prepared fresh on the day of injection, and all were administered in solution. Median survival times for both control and drug-treated mice were determined and expressed as a percentage (% T/C). Body weights were determined on Day 5 and expressed as a weight difference (body weight of the drug-treated animals minus that of the control animals in grams) (T-C). The diluent control animals lived a median of 8.4 days and gained 1.9 grams by Day 5 in this experiment. All animals, including Day 30 survivors, were used in the calculation of median survival times. The log10 change in tumor burden refers to the net log change in viable tumor cell population at the end of therapy (Rx) as compared to the start of therapy; e.g., a […] means that there was a […] and a 3 log change means there was a 1000-fold increase in tumor burden at the end of therapy. The tumor burden at the start of therapy was about 6.1×10^5 cells in this experiment.
(§4) These experiments (23-00081 3LE31 and 23-00003 3DP3l) were conducted concurrently at the Mason Research Institute, Worcester, MA under the supervision of Dr. William Cobb. See Table 4 for experimental details. The diluent control animals bearing L1210 leukemia lived a median of 8.3 days and gained 1.6 grams by Day 5. […] Female CD2Fl mice were used for these experiments.

[2] = test system: IP-Implanted L1210 Leukemia; test: Dose-response against IP-implanted L1210 leukemia, IP treatment Days 1, 5 and 9, 30-day test (Table 2); format: in vivo, CD2Fl male mice
Description: as §1, §3

IP L1210 [3] = test: Activity against IP-implanted L1210 leukemia sensitive to cisplatin, 30 day test (Table 3); format: in vivo, Female CD2Fl mice
Description: as §1, §2, §3
These experiments (A8-00008 3LE31 and A8-00001 3DP31) were conducted concurrently at the Southern Research Institute, Birmingham, Ala. under the supervision of Dr. Daniel Griswold. See Table 4 for experimental details. The diluent control animals bearing L1210 leukemia lived a median of 8.6 days and gained 1.3 grams by Day 5. […] Female CD2Fl mice were used for these experiments.

IP L1210/Cisplatin = test: Activity against IP-implanted L1210/Cisplatin leukemia resistant to cisplatin, 60 day test (Table 4); format: in vivo, Female CD2Fl mice
Description: as §1
Other known mechanisms of resistance for other classes of agents, such as gene amplification or target enzyme change or amplication, also need to be explored. The experiments summarized in Table 3 were conducted at the same time against both sublines using the same drug preparations. […] These experiments were repeated in a second laboratory as documented in Table 4. However, in these experiments the animals were held for 60 rather than 30 days to evaluate whether or not long-term survivors are produced after drug treatment in a more challenging setting. […]
as §4

With `[Cl][Pt]1([Cl])([Cl])([Cl])[NH]C2CCCCC2[NH]1` (stereo not drawn) [trans (d, l), (d,l)-Tetrachloro-trans-1,2-cyclohexanediamine platinum (IV)] the “60 Day Survivors/Total” value (IP L1210 [1]; 1 mg/kg/dose) was 0/10, the “Body Weight Difference” value (IP L1210 [1]; 1 mg/kg/dose) was -0.8 Grams and the “Median % T/C” value (IP L1210 [1]; 1 mg/kg/dose) was 144%. For the same compound, the “60 Day Survivors/Total” value (IP L1210 [1]; 2 mg/kg/dose) was 0/10, the “Body Weight Difference” value (IP L1210 [1]; 2 mg/kg/dose) was -1.2 Grams and the “Median % T/C” value (IP L1210 [1]; 2 mg/kg/dose) was 180%. The “60 Day Survivors/Total” value (IP L1210 [1]; 4 mg/kg/dose) was 0/10, the “Body Weight Difference” value (IP L1210 [1]; 4 mg/kg/dose) was -1.5 Grams and the “Median % T/C” value (IP L1210 [1]; 4 mg/kg/dose) was 274%. For the same compound, the “60 Day Survivors/Total” value (IP L1210 [1]; 8 mg/kg/dose) was 3/10, the “Body Weight Difference” value (IP L1210 [1]; 8 mg/kg/dose) was -3.2 Grams and the “Median % T/C” value (IP L1210 [1]; 8 mg/kg/dose) was 178%. For the same compound, the “60 Day Survivors/Total” value (IP L1210 [1]; 16 mg/kg/dose) was 0/10, the “Body Weight Difference” value (IP L1210 [1]; 16 mg/kg/dose) was -5.9 Grams and the “Median % T/C” value (IP L1210 [1]; 16 mg/kg/dose) was 89%. The “30-Day Survivors/Total” value ([2]; 1 mg/kg/dose IP) was 0/6, the “Approx. Log10 Change in Tumor Burden at End of Rx” value ([2]; 1 mg/kg/dose IP) was about 2.9 log10 and the “Body Weight Difference” value ([2]; 1 mg/kg/dose IP) was -0.5 Grams. For the same compound, the “Median % T/C” value ([2]; 1 mg/kg/dose IP) was 122%, the “30-Day Survivors/Total” value ([2]; 2 mg/kg/dose IP) was 0/6 and the “Approx. Log10 Change in Tumor Burden at End of Rx” value ([2]; 2 mg/kg/dose IP) was about 2.5 log10. The “Body Weight Difference” value ([2]; 2 mg/kg/dose IP) was -1.5 Grams, the “Median % T/C” value ([2]; 2 mg/kg/dose IP) was 146% and the “30-Day Survivors/Total” value ([2]; 4 mg/kg/dose IP) was 1/6. The “Approx. Log10 Change in Tumor Burden at End of Rx” value ([2]; 4 mg/kg/dose IP) was about -0.5 log10, the “Body Weight Difference” value ([2]; 4 mg/kg/dose IP) was -1.5 Grams and the “Median % T/C” value ([2]; 4 mg/kg/dose IP) was 202%. The “30-Day Survivors/Total” value ([2]; 8 mg/kg/dose IP) was 4/6, the “Approx. Log10 Change in Tumor Burden at End of Rx” value ([2]; 8 mg/kg/dose IP) was about -5.7 log10 and the “Body Weight Difference” value ([2]; 8 mg/kg/dose IP) was -1.2 Grams. The “Median % T/C” value ([2]; 8 mg/kg/dose IP) was 357%, the “Body Weight Difference” value ([2]; 8 mg/kg/dose IP, listed as trans dl) was “less than -4 Grams” and the “30-Day Survivors/Total” value ([2]; 16 mg/kg/dose IP) was 1/6. For the same compound, the “Approx. Log10 Change in Tumor Burden at End of Rx” value ([2]; 16 mg/kg/dose IP) was about 2.6 log10, the “Body Weight Difference” value ([2]; 16 mg/kg/dose IP) was -4.6 Grams and the “Median % T/C” value ([2]; 16 mg/kg/dose IP) was 142%. The “Optimal dose (dose producing best therapeutic response)” value ([2]; day 1, 5 and 9 schedule) was 8 mg/kg/injection, the “30 Day Survivors/Total” value (IP L1210 [3]; 1 mg/kg/dose) was 0/6 and the “Approx. Log10 Change in Tumor Burden at End of RX” value (IP L1210 [3]; 1 mg/kg/dose) was about 2.8 log10. For the same compound, the “Median % T/C” value (IP L1210 [3]; 1 mg/kg/dose) was 125%, the “30 Day Survivors/Total” value (IP L1210 [3]; 2 mg/kg/dose) was 0/6 and the “Approx. Log10 Change in Tumor Burden at End of RX” value (IP L1210 [3]; 2 mg/kg/dose) was about 2.4 log10. For the same compound, the “Median % T/C” value (IP L1210 [3]; 2 mg/kg/dose) was 151%, the “30 Day Survivors/Total” value (IP L1210 [3]; 4 mg/kg/dose) was 2/6 and the “Approx. Log10 Change in Tumor Burden at End of RX” value (IP L1210 [3]; 4 mg/kg/dose) was about -1.5 log10. The “Median % T/C” value (IP L1210 [3]; 4 mg/kg/dose) was 212%, the “30 Day Survivors/Total” value (IP L1210 [3]; 8 mg/kg/dose) was 3/6 and the “Approx. Log10 Change in Tumor Burden at End of RX” value (IP L1210 [3]; 8 mg/kg/dose) was about -5.9 log10. The “Median % T/C” value (IP L1210 [3]; 8 mg/kg/dose) was 348%, the “30 Day Survivors/Total” value (IP L1210 [3]; 16 mg/kg/dose) was 1/6 and the “Median % T/C” value (IP L1210 [3]; 16 mg/kg/dose) was 143%. For the same compound, the “60 Day Survivors/Total” value (IP L1210/Cisplatin; 1 mg/kg/dose) was 0/10, the “Body Weight Difference” value (IP L1210/Cisplatin; 1 mg/kg/dose) was -0.6 Grams and the “Median % T/C” value (IP L1210/Cisplatin; 1 mg/kg/dose) was 129%. For the same compound, the “60 Day Survivors/Total” value (IP L1210/Cisplatin; 2 mg/kg/dose) was 1/10, the “Body Weight Difference” value (IP L1210/Cisplatin; 2 mg/kg/dose) was -0.8 Grams and the “Median % T/C” value (IP L1210/Cisplatin; 2 mg/kg/dose) was 139%. The “60 Day Survivors/Total” value (IP L1210/Cisplatin; 4 mg/kg/dose) was 4/10, the “Body Weight Difference” value (IP L1210/Cisplatin; 4 mg/kg/dose) was -1.2 Grams and the “Median % T/C” value (IP L1210/Cisplatin; 4 mg/kg/dose) was 451%. For the same compound, the “60 Day Survivors/Total” value (IP L1210/Cisplatin; 8 mg/kg/dose) was 0/10, the “Body Weight Difference” value (IP L1210/Cisplatin; 8 mg/kg/dose) was -4.0 Grams and the “Median % T/C” value (IP L1210/Cisplatin; 8 mg/kg/dose) was 236%. The “60 Day Survivors/Total” value (IP L1210/Cisplatin; 16 mg/kg/dose) was 0/10, the “Body Weight Difference” value (IP L1210/Cisplatin; 16 mg/kg/dose) was -6.3 Grams and the “Median % T/C” value (IP L1210/Cisplatin; 16 mg/kg/dose) was “Toxic”.
